Results on two compounds are retold here after US12583900B2, “Peptide conjugates and methods of use” (The Scripps Research Institute, priority 2019, dated 2026).

Common to all, as to type: in vivo, mouse
The subject of assay [1] is C57BL/6J mice. Nature of the assay: Oral glucose tolerance test 2 h, 72 h, 96 h, […] post dose (GLP-1R/GIPR agonists). The protocol:
C57BL/6J mice (n=6/group) between 10-12 weeks old were fasted overnight and then administrated with 5 mL/kg of each peptide in PBS (pH=8.2) by s.c. route. […]

The next assay has as its system DIO mice (C57BL/6). Nature of the assay: DIO mice study, daily s.c. dosing 21 days, plasma and liver analyses (28-week old). The source says:
All animal care and experimental procedures were approved by the Institutional Animal Care and Use Committee (IACUC) of California Institute for Biomedical Research (Calibr) and strictly followed the NIH guidelines for humane treatment of animals. The results are expressed as means S.E., and the data were compared using the unpaired Student's t test. Where appropriate, data were compared using repeated measures or one-way analysis of variance, followed by the Student-Newman-Keuls post hoc test. Incremental area under the curve (AUC) analyses for plasma glucose was calculated using GraphPad Prism 6.
DIO mice (C57BL/6, male, 28-week old) were randomized based on their body weight and were treated with daily subcutaneous injections of peptide or vehicle (n=7/group). Body weight and food intake were monitored daily throughout the study. At the end of the experiment, mice were sacrificed, and visceral fat mass were weighed. Collected plasma was used for cholesterol level determination according to the manufacturer's guide (cholesterol assay kit, Abcam, Cambridge, England) and triglyceride level using a triglyceride colorimetric assay kit (Cayman chemical, Ann Arbor, Michigan).
Collected plasma was used for cholesterol level determination according to the manufacturer's guide (cholesterol assay kit, Abcam, Cambridge, England). Briefly, plasma was diluted using cholesterol assay buffer and then reacted with the same volume of reaction mix containing cholesterol assay buffer, cholesterol probe, enzyme mix and cholesterol esterase. After incubation at 37° C. for 1 hour, the absorbance at 560 nm was measured using an Envision multilabel plate reader (PerkinElmer, Waltham, MA). Subsequently, the concentration of cholesterol in plasma was calculated according to a standard curve.
Collected plasma was used for triglyceride level determination using a triglyceride colorimetric assay kit (Cayman chemical, Ann Arbor, Michigan). 5 μL of plasma samples or standard were plated into a 384 well plate and followed by adding 75 μL of diluted enzyme buffer to each well. The mixture was incubated at room temperature for 15 min, and the absorbance was read at 560 nm using an Envision plate reader (PerkinElmer, Waltham, MA). The concentration of triglyceride in plasma was calculated using a standard curve.
Terminal serum analytes including total cholesterol, triglyceride, alanine aminotransferase (ALT), aspartate aminotransferase (AST), alkaline phosphatase (ALP) were determined by Alfa Wassermann Vet Axcel® clinical analyzer. Hepatic triglycerides were measured in liver homogenates generated with a colorimetric triglyceride kit (Cayman Chemical). Paraformaldehyde-fixed liver were paraffin-embedded, sectioned and stained with hematoxylin-eosin and Picro-Sirius red by HistoTox Labs (Boulder, CO). All histological assessment (steatosis, fibrosis scoring) were performed by a certified histopathologist blind to treatment (HistoTox Labs) based on classification outlined by Kleiner et al.^3

Assay [2] relates to C57BL/6J mice. Nature of the assay: Oral glucose tolerance test 6 h, 48 h, 96 h post dose (GLP-1R/GCGR agonists). The conditions noted are these: 48 h after administration. The protocol: C57BL/6J mice (n=6/group) between 10-12 weeks old were fasted overnight and then administrated with 5 mL/kg of each peptide in PBS (pH=8.2) by s.c. route. After 6 hours, mice were orally or intraperitoneally administrated with 2 g of glucose solution per kg body weight and their tail blood glucose levels were measured before (0 min) and after glucose challenge for 2 hours. Follow up OGTT were also performed at 48 h, and 96 h post-original dose in same mice after overnight fast.
The efficacy of the GLP-1R/GCGR dual agonist 135 was then evaluated in an oral glucose tolerance test (OGTT) in wilt type mice.

In the case of semaglutide, in the assay with C57BL/6J mice [1] (2 hours post dose), the “OGTT blood glucose levels as measured by the AUC vs vehicle” value (“OGTT blood glucose levels … vs vehicle” for short) is “significant decrease”. Besides, the “fasted glucose levels vs vehicle” value in the assay with C57BL/6J mice [1] (2 hours post treatment) is given as “significant decrease”. Further, the “OGTT blood glucose levels … vs vehicle” value in the assay with C57BL/6J mice [1] (72 hours post dose) is “significant decrease”. The “fasted glucose levels vs vehicle” value with C57BL/6J mice [1] (72 hours post treatment) is on record as “significant decrease”. Besides, the “OGTT blood glucose levels … vs vehicle” value with C57BL/6J mice [1] (96 hours post dose) was “significant decrease”. Besides, the “fasted glucose levels vs vehicle” value in the assay on C57BL/6J mice [1] (96 hours post treatment) is listed as “significant decrease”. In addition, in the assay with C57BL/6J mice [1] ([…] post dose), the “OGTT blood glucose levels … vs vehicle” value is “significant decrease”. Also, in the assay with C57BL/6J mice [1] ([…] post treatment), the “fasted glucose levels vs vehicle” value is “significant decrease”. Also, in the assay with DIO mice (C57BL/6) (DIO mice, daily s.c.), the “food consumption over 20 days vs vehicle” value is on record as “reduction”; the “total bodyweight and percent change from initial bodyweight over 21 days” value is recorded as “decrease”. Besides, in the assay on DIO mice (C57BL/6) (day 20), the “plasma glucose excursions in a fed state” value is given as “significant decrease”. Also, in the assay on DIO mice (C57BL/6) (day 21), the “OGTT glucose levels over time and AUC” value was “significant decrease”; the “plasma glucose excursions in a fasted state” value was “significant decrease”. Besides, in the assay with DIO mice (C57BL/6) (terminal, vs vehicle), the “plasma level of ALP” value was “significantly reduced”, the “plasma level of ALT” value is listed as “significantly reduced”, the “plasma level of cholesterol” value is given as “significantly reduced” and the “plasma level of triglycerides” value was “significantly reduced”. Besides, in the assay on DIO mice (C57BL/6) (vs vehicle), the fat weight entry is “significantly reduced”, the “liver to bodyweight ratio” value is recorded as “significantly decreased”, the liver triglyceride level result is recorded as “significantly decreased” and the liver weight result is recorded as “significantly decreased”. Moreover, in the assay with DIO mice (C57BL/6) (vs vehicle), the steatosis grade result is “reduced”.
As for `CCCCCCCCCCCCCCCC(=O)N[C@@H](CCC(=O)NCCCC[C@H](NC(=O)[C@H](CC(=O)O)NC(=O)[C@H](CO)NC(=O)[C@@H](NC(=O)[C@H](Cc1ccccc1)NC(=O)[C@@H](NC(=O)CNC(=O)[C@H](CCC(N)=O)NC(=O)[C@H](CO)NC(=O)[C@@H](N)Cc1c[nH]cn1)[C@@H](C)O)[C@@H](C)O)C(=O)N[C@@H](CO)C(=O)N[C@@H](CCC(=O)O)C(=O)N[C@@H](Cc1ccc(O)cc1)C(=O)N[C@@H](CC(C)C)C(=O)N[C@@H](CC(=O)O)C(=O)N[C@@H](CO)C(=O)N[C@@H](CCC(=O)O)C(=O)N[C@@H](CCCNC(=N)N)C(=O)N[C@@H](C)C(=O)N[C@@H](CCCNC(=N)N)C(=O)N[C@@H](CC(=O)O)C(=O)N[C@@H](Cc1ccccc1)C(=O)N[C@H](C(=O)N[C@@H](C)C(=O)N[C@@H](Cc1c[nH]c2ccccc12)C(=O)N[C@@H](CC(C)C)C(=O)N[C@@H](CCC(=O)O)C(=O)N[C@@H](C)C(=O)NCC(=O)NCC(=O)O)C(C)C)C(=O)O` [cotadutide], the “plasma glucose excursions in a fasted state” value with DIO mice (C57BL/6) (day 21) is recorded as “significant decrease”. In addition, in the assay with DIO mice (C57BL/6) (vs vehicle), the “liver to bodyweight ratio” value is on record as “significantly decreased”, the liver triglyceride level result is “significantly decreased” and the liver weight result is “significantly decreased”. For the same compound, the “glucose handling in OGTT” value with C57BL/6J mice [2] is “did not exhibit any improvement over the vehicle”.
